Several values for one entry are separate records, joined by “and”; a condition that tells them apart may be missing. Equal entries are not always repeated. Toxic doses and inconclusive results are not listed.

This test relates to CD2F1 mice, L1210 leukemia ip, survival T/C. Description: NCI In Vivo Anticancer Drug Screen. Data for tumor model L1210 Leukemia (intraperitoneal) in CD2F1 (CDF1) mice. Conditions: higher = longer survival. Put shortly: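 Read-out first: treated-group measurement over vehicle-control measurement, expressed as a ratio. Animals bore a transplanted tumor line and were dosed with compound or vehicle.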

[1] abbreviates: endpoint: mean survival time, dose: 100.0 mg/kg/injection, schedule: Q01DX001 (ip), vehicle: Klucel (hydroxypropylcellulose) (HPC).
The mark [2] stands for this setting: endpoint: mean survival time, dose: 200.0 mg/kg/injection, schedule: Q01DX001 (ip), vehicle: Klucel (hydroxypropylcellulose) (HPC).
Setting [3] is: endpoint: mean survival time, dose: 400.0 mg/kg/injection, schedule: Q01DX001 (ip), vehicle: Klucel (hydroxypropylcellulose) (HPC).
Where [4] appears, read: endpoint: mean survival time, dose: 100.0 mg/kg/injection, schedule: Q01DX001 (ip), vehicle: saline with Tween-80.
[5] abbreviates: endpoint: mean survival time, dose: 100.0 mg/kg/injection, schedule: Q01DX009 (ip), vehicle: saline with Tween-80.
Where [6] appears, read: endpoint: mean survival time, dose: 200.0 mg/kg/injection, schedule: Q01DX001 (ip), vehicle: saline with Tween-80.
Where [7] appears, read: endpoint: mean survival time, dose: 200.0 mg/kg/injection, schedule: Q01DX009 (ip), vehicle: saline with Tween-80.
The mark [8] stands for this setting: endpoint: mean survival time, dose: 400.0 mg/kg/injection, schedule: Q01DX001 (ip), vehicle: saline with Tween-80.
Setting [9] is: endpoint: mean survival time, dose: 400.0 mg/kg/injection, schedule: Q01DX009 (ip), vehicle: saline with Tween-80.

With `O=[N+]([O-])c1ccc(-c2cn3ccsc3n2)cc1`, the T/C is 87 % of control under setting [1], 90 % of control under setting [2] and 90 % of control under setting [3].

As to `CCOC(=O)c1cc(C[N+](C)(C)C)oc1C`, the T/C is 96 % of control (endpoint: mean survival time, dose: 25.0 mg/kg/injection, schedule: Q01DX001 (ip), vehicle: saline); 102 % of control (endpoint: mean survival time, dose: 50.0 mg/kg/injection, schedule: Q01DX001 (ip), vehicle: saline); 106 % of control under setting [4]; 98 % of control (endpoint: mean survival time, dose: 100.0 mg/kg/injection, schedule: Q01DX001 (ip), vehicle: saline).

As for `CCCOP(=O)(CCl)OCCC`, the T/C (endpoint: mean survival time, dose: 100.0 mg/kg/injection, schedule: Q01DX009 (ip), vehicle: saline) was 95 % of control; the T/C (endpoint: mean survival time, dose: 200.0 mg/kg/injection, schedule: Q01DX009 (ip), vehicle: saline) was 100 % of control; the T/C (endpoint: mean survival time, dose: 400.0 mg/kg/injection, schedule: Q01DX009 (ip), vehicle: saline) is 97 % of control.

With `[Cl][Pt+2][Cl].[NH-]CC1CCCC[N-]1` (centres undefined), the T/C is, setting by setting: (endpoint: mean survival time, dose: 6.25 mg/kg/injection, schedule: Q04DX003 (ip), vehicle: distilled water + Tween-80) 121 % of control; (endpoint: mean survival time, dose: 12.5 mg/kg/injection, schedule: Q04DX003 (ip), vehicle: distilled water + Tween-80) 115 % of control; (endpoint: mean survival time, dose: 25.0 mg/kg/injection, schedule: Q04DX003 (ip), vehicle: distilled water + Tween-80) 150 % of control; (endpoint: mean survival time, dose: 50.0 mg/kg/injection, schedule: Q04DX003 (ip), vehicle: distilled water + Tween-80) 123 % of control; (endpoint: mean survival time, dose: 200.0 mg/kg/injection, schedule: Q04DX003 (ip), vehicle: distilled water + Tween-80) 91 % of control; (endpoint: median survival time, dose: 12.5 mg/kg/injection, schedule: Q04DX002 (ip), vehicle: saline) 168 % of control. In addition, the T/C (endpoint: median survival time, dose: 25.0 mg/kg/injection, schedule: Q04DX002 (ip), vehicle: saline) was 158 % of control.

On to `Cc1cc(C)nc(NS(=O)(=O)c2ccc(NCN3C(=O)c4ccccc4C3=O)cc2)n1`, for which the T/C by setting is: under setting [4], 101 % of control; under setting [5], 96 % of control; under setting [6], 107 % of control; under setting [7], 94 % of control; under setting [8], 107 % of control; under setting [9], 90 % of control.

Turning to `Nc1ccc2c(c1)CN1C(=O)c3ccccc3C1=N2`, the T/C is, setting by setting: (endpoint: median survival time, dose: 12.5 mg/kg/injection, schedule: Q01DX009 (ip), vehicle: saline with Tween-80) 111 % of control; (endpoint: median survival time, dose: 25.0 mg/kg/injection, schedule: Q01DX009 (ip), vehicle: saline with Tween-80) 115 % of control; (endpoint: median survival time, dose: 50.0 mg/kg/injection, schedule: Q01DX009 (ip), vehicle: saline with Tween-80) 116 % of control; (endpoint: median survival time, dose: 100.0 mg/kg/injection, schedule: Q01DX009 (ip), vehicle: saline with Tween-80) 108 % of control.

With `O=C(Cn1[nH]c(=O)ccc1=O)c1ccccc1`, the T/C runs as follows: (endpoint: mean survival time, dose: 12.5 mg/kg/injection, schedule: Q04DX002 (ip), vehicle: saline with Tween-80) 95 % of control; (endpoint: mean survival time, dose: 25.0 mg/kg/injection, schedule: Q04DX002 (ip), vehicle: saline with Tween-80) 100 % of control; (endpoint: mean survival time, dose: 50.0 mg/kg/injection, schedule: Q04DX002 (ip), vehicle: saline with Tween-80) 91 % of control and 92 % of control; (endpoint: mean survival time, dose: 200.0 mg/kg/injection, schedule: Q04DX002 (ip), vehicle: saline with Tween-80) 94 % of control.

As for `O=C(NO)c1cccnc1`, the T/C is, setting by setting: (endpoint: mean survival time, dose: 270.0 mg/kg/injection, schedule: Q01DX009 (ip), vehicle: other) 121 % of control; (endpoint: mean survival time, dose: 400.0 mg/kg/injection, schedule: Q01DX001 (ip), vehicle: other) 98 % of control; (endpoint: mean survival time, dose: 600.0 mg/kg/injection, schedule: Q01DX001 (ip), vehicle: other) 101 % of control; (endpoint: mean survival time, dose: 800.0 mg/kg/injection, schedule: Q01DX001 (ip), vehicle: other) 101 % of control; (endpoint: mean survival time, dose: 800.0 mg/kg/injection, schedule: Q01DX009 (ip), vehicle: other) 164 % of control.

Turning to `COCCOCCOCCOCCOCCOCCOCCOCCOCCOCCOC(=O)N(CC[PH+](c1ccccc1)c1ccccc1)CC[PH+](c1ccccc1)c1ccccc1.[Cl][Pt][Cl]`, the T/C runs as follows: (endpoint: median survival time, dose: 3.13 mg/kg/injection, schedule: Q04DX003 (ip), vehicle: distilled water + Tween-80) 101 % of control; (endpoint: median survival time, dose: 6.25 mg/kg/injection, schedule: Q04DX003 (ip), vehicle: distilled water + Tween-80) 100 % of control; (endpoint: median survival time, dose: 12.5 mg/kg/injection, schedule: Q04DX003 (ip), vehicle: distilled water + Tween-80) 104 % of control; (endpoint: median survival time, dose: 25.0 mg/kg/injection, schedule: Q04DX003 (ip), vehicle: distilled water + Tween-80) 96 % of control; (endpoint: median survival time, dose: 50.0 mg/kg/injection, schedule: Q04DX003 (ip), vehicle: distilled water + Tween-80) 115 % of control; (endpoint: median survival time, dose: 100.0 mg/kg/injection, schedule: Q04DX003 (ip), vehicle: distilled water + Tween-80) 100 % of control. The T/C (endpoint: median survival time, dose: 200.0 mg/kg/injection, schedule: Q04DX003 (ip), vehicle: distilled water + Tween-80) is 98 % of control.

Take `CCN(CC)C(=S)SC/C=C\CC(Cl)(Cl)Cl`: the T/C by setting is: (endpoint: mean survival time, dose: 75.0 mg/kg/injection, schedule: Q04DX003 (ip), vehicle: saline) 97 % of control; (endpoint: mean survival time, dose: 150.0 mg/kg/injection, schedule: Q04DX003 (ip), vehicle: saline) 101 % of control; (endpoint: mean survival time, dose: 300.0 mg/kg/injection, schedule: Q04DX003 (ip), vehicle: saline) 109 % of control.

Turning to `O=C(NO)Nc1ccccc1`, the T/C was 101 % of control (endpoint: mean survival time, dose: 8.0 mg/kg/injection, schedule: Q03HX024 (ip), vehicle: other); 101 % of control (endpoint: mean survival time, dose: 16.0 mg/kg/injection, schedule: Q03HX024 (ip), vehicle: other); 101 % of control (endpoint: mean survival time, dose: 32.0 mg/kg/injection, schedule: Q03HX024 (ip), vehicle: other); 89 % of control (endpoint: mean survival time, dose: 62.0 mg/kg/injection, schedule: Q03HX024 (ip), vehicle: saline with Tween-80); 95 % of control (endpoint: mean survival time, dose: 64.0 mg/kg/injection, schedule: Q03HX024 (ip), vehicle: other); 86 % of control (endpoint: mean survival time, dose: 93.0 mg/kg/injection, schedule: Q03HX024 (ip), vehicle: saline with Tween-80). Moreover, the T/C (endpoint: mean survival time, dose: 128.0 mg/kg/injection, schedule: Q03HX024 (ip), vehicle: other) is 92 % of control.

For `O=C(CCl)N1CCc2ccccc21`, the T/C is 98 % of control (endpoint: mean survival time, dose: 100.0 mg/kg/injection, schedule: Q04DX003 (ip), vehicle: Klucel (hydroxypropylcellulose) (HPC)); 103 % of control (endpoint: mean survival time, dose: 200.0 mg/kg/injection, schedule: Q04DX003 (ip), vehicle: Klucel (hydroxypropylcellulose) (HPC)); 97 % of control (endpoint: mean survival time, dose: 400.0 mg/kg/injection, schedule: Q04DX003 (ip), vehicle: Klucel (hydroxypropylcellulose) (HPC)).

Take `CC(=O)NC(CO)C(O)c1ccc(N)cc1` (centres undefined): the T/C was 97 % of control under setting [4]; 102 % of control under setting [5]; 101 % of control under setting [6]; 96 % of control under setting [7]; 104 % of control under setting [8]; 96 % of control under setting [9].

Take `CN1CCCN(C)C1`: the T/C (endpoint: mean survival time, dose: 75.0 mg/kg/injection, schedule: Q01DX001 (ip), vehicle: saline) is 97 % of control; the T/C (endpoint: mean survival time, dose: 150.0 mg/kg/injection, schedule: Q01DX001 (ip), vehicle: saline) is 97 % of control; the T/C (endpoint: mean survival time, dose: 300.0 mg/kg/injection, schedule: Q01DX001 (ip), vehicle: saline) is 102 % of control.

Take `CCN(CC)CCCNC(C)=O`: the T/C runs as follows: (endpoint: mean survival time, dose: 100.0 mg/kg/injection, schedule: Q04DX003 (ip), vehicle: saline) 98 % of control; (endpoint: mean survival time, dose: 200.0 mg/kg/injection, schedule: Q04DX003 (ip), vehicle: saline) 96 % of control; (endpoint: mean survival time, dose: 400.0 mg/kg/injection, schedule: Q04DX003 (ip), vehicle: saline) 101 % of control.

Turning to `O=C(C=C(C(F)(F)F)C(F)(F)F)c1ccc(C(=O)C=C(C(F)(F)F)C(F)(F)F)cc1`, the T/C was 105 % of control (endpoint: mean survival time, dose: 100.0 mg/kg/injection, schedule: Q04DX003 (ip), vehicle: saline with Tween-80) and 93 % of control (endpoint: mean survival time, dose: 200.0 mg/kg/injection, schedule: Q04DX003 (ip), vehicle: saline with Tween-80).

As to `C#CCOC1CCCC1O` (centres undefined), where the note is “endpoint: mean survival time, dose: 100.0 mg/kg/injection, schedule: Q04DX003 (ip), vehicle: acetone”, the T/C is 101 % of control.

For the molecule `Cc1ccc(S(=O)(=O)/N=S(/C)CC/S(C)=N/S(=O)(=O)c2ccc(C)cc2)cc1` (centres undefined), the T/C is, setting by setting: under setting [1], 97 % of control; under setting [2], 102 % of control; under setting [3], 100 % of control.

These data come from PubChem BioAssay AID256 (DTP/NCI, 2004).
